This note sets out measurements from patent USRE49351E1, “Cytoprotective agent” (Biogen MA Inc., priority 2009, dated 2023).

Test [1] relates to Mongolian gerbil cerebral infarction model. Nature of the test: Mongolian gerbil cerebral infarction model (acetic acid-induced thrombus): infarction area percentage and neurological symptom. In kind it is in vivo. The note with it: for Infarction area: evaluated 24 h; for Infarction area / Neurological scores: mean ± SE, n=6; for Neurological scores: score 0-4 at 24 h; for improvement rate of the infarction area percentage: 10 mg/kg, administration initiated 1 hour after the initiation of ischemia. The text has this:
Anesthesia was induced to a male Mongolian gerbil (body weight 55 to 65 g) by inhalation of 5% isoflurane (trade name Escain, Mylan Inc.), and maintained with 1 to 1.5% isoflurane. The Mongolian gerbil was fixed in a dorsal position, and the neck was dehaired and then disinfected with 70% ethanol. After median incision of the neck, the right common carotid artery was detached, clamped to block the blood flow temporarily, and coated with 100% acetic acid by 30 reciprocating motions so as to produce a thrombus. The blood vessel was reopened after 10 min of the blockage of the blood flow to transfer the thrombus by the blood stream into the brain to make it ischemic and generate cerebral infarction. The operating field was closed with an instant adhesive (trade name Aron Alpha (Krazy Glue), Toagosei Co., Ltd.) and disinfected with 70% ethanol.
Twenty four hours after the initiation of the operation neurological symptoms were observed as an indicator for cerebral infarction. Many types of neurological symptoms specific to cerebral infarction, such as extension of a hindlimb or circling to one direction, have been reported. Applying a modified evaluation method of the method proposed by Longa, et al. (Stroke 1989; 20:84-91) postoperative neurological symptoms were evaluated as per: no deficit, 0; extension of limb, 1; circling to one direction, 2; incline posture, 3; diminished motion, 4.
With respect to statistical analysis, for multiple comparisons was conducted firstly one-way analysis of variance (ANOVA) and then a Bonferroni test was conducted, if significant difference is detected. Significant difference was positively recognized with significance level 5% (P<0.05). All the results are expressed in mean±standard error.
After the evaluation of neurological symptoms according to the above method, the animal was decapitated under anesthesia with isoflurane. The cranial bone was exfoliated of skin and opened, and, after scission of optic nerve, the brain was extirpated and dipped in a physiological saline solution to remove attached body hairs, etc. The extirpated brain was placed in a brain matrix (RBM-1000C, ASI Instruments) to carry out coronal slicing from the frontal pole at thickness of 2 mm. The slices were dipped in 2% 2,3,5-triphenyl-2H-tetrazolium chloride (TTC), and incubated for staining at 37° C. for 30 min in a CO2 incubator. The colorless TTC is reduced by hydrogen liberated by the action of dehydrogenase contained in a normal cell converting to dark red colored water-insoluble 1,3,5-triphenylformazan (TPF), so that the normal cell is stained. Unstained area (white area) was defined as an infarction area. Meanwhile, the corpus callosum, which is commissural fibers connecting the right and left cerebral hemispheres, is not stained and is white, and therefore image processing for the analyses as described below was conducted excluding the corpus callosum.
After staining images of the brain slices were taken by a digital camera under a stereoscopic microscope. For analysis of the infarction area percentage, an image analysis software Image J (Version 1.4) was used. Full, excluding the corpus callosum, images of the taken 2nd, 3rd, and 4th brain slice images were converted to grayscale. From the grayscale images a histogram for the whole brain as the object scope was obtained showing in the ordinate the frequency of occurrence (frequency) at certain brightness, and showing in the abscissa the brightness (0 to 255). The sum from 0 to 255 was defined as the area size of the whole brain, and the sum from 160 to 219 was defined as the area size of the infarction area. Then the infarction area percentage was determined according to the following formula using the total area size of the infarction areas and the total area size of the whole brain, of the 3 brain slice images. Statistical analysis was conducted as above. […]

The subject of test [2] is cerebral blood flow. Briefly: Cerebral blood flow by laser-Doppler in mouse cerebral infarction model. In kind it is in vivo. The note with it: mean ± SE, n=3. The method, then: The improvement effectiveness of SMTP-7 and alteplase on the cerebral blood flow was compared using the mouse cerebral infarction model.
SMTP-7 and alteplase were prepared as in Example 2. SMTP-7 and alteplase were administered in an amount of 10 mg/kg into the femoral vein 1 hour after the initiation of ischemia in a mouse cerebral infarction model, wherein 10% was administered by a bolus administration, and the rest by continuous administration over 30 min. Three mice were used for each condition.
The cerebral blood flow was measured at 6 time points, namely before the initiation of ischemia, immediately after the initiation of ischemia, and after the completion of the drug administration 0 hour (immediately after the completion), 1 hour, 3 hours, and 24 hours.
The cerebral blood flow measurement was conducted by cutting the head skin of a mouse to expose the cranial bone, and measuring the blood flow of the whole brain surfaces by a laser-Doppler apparatus (moorFLPI, Moor Instruments Ltd, UK). The analysis was conducted using moorFLPI (Version 2.1) by rating percentage (%) relative to the value before the initiation of ischemia of each group.

The mark [3] stands for this setting: 1 mg/kg i.v., administration initiated 1 hr after ischemia.
Setting [4] is: 10 mg/kg i.v., administration initiated 1 hr after ischemia.
The mark [5] stands for this setting: 10 mg/kg i.v., administration initiated 3 hr after ischemia.
The mark [6] stands for this setting: 10 mg/kg i.v., administration initiated 6 hr after ischemia.
The mark [7] stands for this setting: 10 mg/kg 1 hour after ischemia, 0 hr after completion of administration.
Where [8] appears, read: 10 mg/kg 1 hour after ischemia, 1 hr after completion of administration.
[9] abbreviates: 10 mg/kg 1 hour after ischemia, 3 hr after completion of administration.
Setting [10] is: 10 mg/kg 1 hour after ischemia, 24 hr after completion of administration.
The mark [11] stands for this setting: immediately after initiation of ischemia (before drug administration), group later given 10 mg/kg.
Setting [12] is: 0.01 mg/kg i.v., administration initiated 1 hr after ischemia.
[13] abbreviates: 0.1 mg/kg i.v., administration initiated 1 hr after ischemia.

As for `CC(C)=CCC/C(C)=C/CC[C@@]1(C)Oc2c(c(O)cc3c2CN(CCC[C@@H](C(=O)O)N2Cc4c(cc(O)c5c4O[C@](C)(CC/C=C(\C)CCC=C(C)C)[C@@H](O)C5)C2=O)C3=O)C[C@@H]1O` [SMTP-7], the Infarction area in test [1] (setting [3]) came to 11.4 ± 2.69%; in test [1] (setting [4]) it was 7.01 ± 0.56 %; in test [1] (setting [5]), 5.90 ± 0.36 %; in test [1] (setting [6]) it was 7.93 ± 1.64 %. Also, the Neurological scores stood at 2.67 ± 0.33 in test [1] (setting [3]), 1.50 ± 0.67 in test [1] (setting [4]), 1.67 ± 0.61 in test [1] (setting [5]) and 2.00 ± 0.45 in test [1] (setting [6]). Moreover, the “improvement rate of the infarction area percentage” value in test [1] is on record as 65.7%. Also, the “cerebral blood flow relative to the value before the initiation of ischemia” value in test [2] (setting [7]) amounted to 43.74 ± 12.67%; in test [2] (setting [8]), 44.48 ± 12.59%; in test [2] (setting [9]), 48.90 ± 15.89%; in test [2] (setting [10]), 76.01 ± 9.71%; in test [2] (setting [11]), 34.17 ± 5.22%.

For alteplase [reference compound], the Infarction area in test [1] (setting [12]) amounted to 11.2 ± 2.74%; in test [1] (setting [13]) it was 9.67 ± 2.35%; in test [1] (setting [4]), 5.43 ± 1.33 %; in test [1] (setting [5]) it was 11.0 ± 3.61%; in test [1] (setting [6]), 13.8 ± 2.40%. Also, the Neurological scores in test [1] (setting [12]) is reported as 2.67 ± 0.56; in test [1] (setting [13]) it was 2.00 ± 0.77; in test [1] (setting [4]), 0.17 ± 0.17; in test [1] (setting [5]), 1.33 ± 0.67; in test [1] (setting [6]), 3.17 ± 0.48. The “improvement rate of the infarction area percentage” value in test [1] is 78.9%. Moreover, the “cerebral blood flow relative to the value before the initiation of ischemia” value worked out at 56.45 ± 14.70% in test [2] (setting [7]); 73.49 ± 20.33% in test [2] (setting [8]); 66.83 ± 11.10% in test [2] (setting [9]); 71.63 ± 6.06% in test [2] (setting [10]); 27.30 ± 2.35% in test [2] (setting [11]).
